Patent US8946438B2, “Benzamides, production thereof, and use thereof as medicaments” (Boehringer Ingelheim International GmbH, priority 2008, dated 2015)

target: p38 MAP-kinase (Homo sapiens, UniProt Q16539); assay: Enzymatic assay: inhibition of p38 MAP-kinase (phosphorylation of GST-tagged ATF2, chemoluminescence bead readout); format: biochemical; settings: inhibitor 1 μM; activated p38 MAP-kinase 1 nM; 4 h preincubation; ATP 100 μM; ATF2 10 nM; read-out: % inhibitory effect at 1 μM
Description: In this, the amount of a substrate phosphorylated by the kinase is quantified. The test is carried out as follows:
The kinase reaction is carried out in the presence of HEPES (20 mM, pH 7), MgCl2 (10 mM), DTT (1 mM) and TWEEN20 (0.01%). First, dimethylsulphoxide or inhibitor (final concentration: 1 μM) dissolved in dimethylsulphoxide are placed in a reaction vessel. Then the activated p38 MAP-kinase (final concentration 1 nM) is added and the mixture is incubated for 4 h at ambient temperature. Then a mixture of substrate (GST-tagged ATF2) and ATP is added and everything is incubated together for a further hour (final concentration ATP: 100 μM; final concentration ATF2: 10 nM).
The concentration of phosphorylated ATF2 is quantified by chemoluminescence-induced light emission. For this, a glutathione donor bead (final concentration: 5 μg/ml) which binds to the gluthathione on the ATF2 and phospho-ATF2 antibodies are added to the reaction mixture (final concentration: 3 nM; this binds the phosphate group added by the kinase reaction) to which a Protein A Acceptor Bead (final concentration: 5 μg/ml) binds. These components are dissolved in a buffer which contains 20 mM HEPES pH 7.0, 200 mM NaCL, 80 mM EDTA as well as 0.3% BSA. This reaction mixture is incubated in the dark for 1 hour at ambient temperature. When these beads come physically close, visible light is emitted which is measured in a photometer at 520-620 nm.
To determine the inhibitory activity of the compounds according to the invention a calculation is made to determine the percentage by which the kinase activity is inhibited at a fixed inhibitor concentration of 1 μM. The maximum activity is determined by non-inhibited kinase. The minimum activity or nonspecific background activity is determined using a reaction mixture without kinase. […] Table 2 summarises the degree of inhibition of the enzyme p38 MAP-kinase—as described hereinbefore—of the compounds according to the invention detailed in the section “Preparation of the final compounds”.

Sequence of p38 MAP-kinase (Q16539 whole entry): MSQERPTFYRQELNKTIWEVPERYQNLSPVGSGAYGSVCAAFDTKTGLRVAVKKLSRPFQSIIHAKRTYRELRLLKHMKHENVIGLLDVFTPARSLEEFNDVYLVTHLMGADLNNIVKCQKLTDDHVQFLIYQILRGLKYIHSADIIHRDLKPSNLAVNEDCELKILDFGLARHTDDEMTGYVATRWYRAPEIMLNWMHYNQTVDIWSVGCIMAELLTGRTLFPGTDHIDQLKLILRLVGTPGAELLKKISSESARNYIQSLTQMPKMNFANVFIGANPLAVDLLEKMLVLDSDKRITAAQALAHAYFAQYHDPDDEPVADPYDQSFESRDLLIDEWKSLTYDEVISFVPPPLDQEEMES

inhibition at 1 µM [%]	SMILES
97	CNc1cc(Oc2cc(C(=O)Nc3cc(C(C)(C)C)cc(NS(C)(=O)=O)c3OC)ccc2C)ncn1 [3(1), N-(5-tert-butyl-3-methanesulphonylamino-2-methoxy-phenyl)-4-methyl-3-(6-methylamino-pyrimidin-4-yloxy)-benzamide]
96.8	COc1c(NC(=O)c2ccc(C)c(Oc3cc(NCCO)ncn3)c2)cc(C(C)(C)C)cc1NS(C)(=O)=O [4(1), N-(5-tert-butyl-3-methanesulphonylamino-2-methoxy-phenyl)-3-[6-(2-hydroxy-ethylamino)-pyrimidin-4-yloxy]-4-methyl-benzamide]
94.8	COc1c(NC(=O)c2ccc(C)c(Oc3cc(NCCN(C)C)ncn3)c2)cc(C(C)(C)C)cc1NS(C)(=O)=O [4(2), N-(5-tert-butyl-3-methanesulphonylamino-2-methoxy-phenyl)-3-[6-(2-dimethylamino-ethylamino)-pyrimidin-4-yloxy]-4-methyl-benzamide]
96.3	COc1c(NC(=O)c2ccc(C)c(Oc3cc(N4CCNC(=O)C4)ncn3)c2)cc(C(C)(C)C)cc1NS(C)(=O)=O [4(3), N-(5-tert-butyl-3-methanesulphonylamino-2-methoxy-phenyl)-4-methyl-3-[6-(3-oxo-piperazin-1-yl)-pyrimidin-4-yloxy]-benzamide]
97.5	COc1c(NC(=O)c2ccc(C)c(Oc3cc(N4CCCC4)ncn3)c2)cc(C(C)(C)C)cc1NS(C)(=O)=O [4(4), N-(5-tert-butyl-3-methanesulphonylamino-2-methoxy-phenyl)-4-methyl-3-(6-pyrrolidin-1-yl-pyrimidin-4-yloxy)-benzamide]
97.4	COc1c(NC(=O)c2ccc(C)c(Oc3cc(N4CCOCC4)ncn3)c2)cc(C(C)(C)C)cc1NS(C)(=O)=O [4(5), N-(5-tert-butyl-3-methanesulphonylamino-2-methoxy-phenyl)-4-methyl-3-(6-morpholin-4-yl-pyrimidin-4-yloxy)-benzamide]
98	COc1c(NC(=O)c2ccc(C)c(Oc3ccnc(N4CC[C@@H](N(C)C)C4)n3)c2)cc(C(C)(C)C)cc1NS(C)(=O)=O [4(6), (R)-N-(5-tert-butyl-3-methanesulphonylamino-2-methoxy-phenyl)-3-[2-(3-dimethylamino-pyrrolidin-1-yl)-pyrimidin-4-yloxy]-4-methyl-benzamide]
98.6	COc1c(NC(=O)c2ccc(C)c(Oc3ccnc(N4CC[C@H](N(C)C)C4)n3)c2)cc(C(C)(C)C)cc1NS(C)(=O)=O [4(7), (S)-N-(5-tert-butyl-3-methanesulphonylamino-2-methoxy-phenyl)-3-[2-(3-dimethylamino-pyrrolidin-1-yl)-pyrimidin-4-yloxy]-4-methyl-benzamide]
98.6	COc1c(NC(=O)c2ccc(C)c(Oc3ccnc(N4CCC(N(C)C)CC4)n3)c2)cc(C(C)(C)C)cc1NS(C)(=O)=O [4(8), N-(5-tert-butyl-3-methanesulphonylamino-2-methoxy-phenyl)-3-[2-(4-dimethylamino-piperidin-1-yl)-pyrimidin-4-yloxy]-4-methyl-benzamide]
98.6	COc1c(NC(=O)c2ccc(C)c(Oc3ccnc(NC4CCN(C)CC4)n3)c2)cc(C(C)(C)C)cc1NS(C)(=O)=O [4(9), N-(5-tert-butyl-3-methanesulphonylamino-2-methoxy-phenyl)-4-methyl-3-[2-(1-methyl-piperidin-4-ylamino)-pyrimidin-4-yloxy]-benzamide]
100	COc1c(NC(=O)c2ccc(C)c(Oc3cc(NC4CCN(C)CC4)ncn3)c2)cc(C(C)(C)C)cc1NS(C)(=O)=O [4(10), N-(5-tert-butyl-3-methanesulphonylamino-2-methoxy-phenyl)-4-methyl-3-[6-(1-methyl-piperidin-4-ylamino)-pyrimidin-4-yloxy]-benzamide]
99.1	COc1c(NC(=O)c2ccc(C)c(Oc3cc(N4CCC(N(C)C)CC4)ncn3)c2)cc(C(C)(C)C)cc1NS(C)(=O)=O [4(11), N-(5-tert-butyl-3-methanesulphonylamino-2-methoxy-phenyl)-3-[6-(4-dimethylamino-piperidin-1-yl)-pyrimidin-4-yloxy]-4-methyl-benzamide]
95.8	COc1c(NC(=O)c2ccc(C)c(Oc3cc(N4CC[C@@H](N(C)C)C4)ncn3)c2)cc(C(C)(C)C)cc1NS(C)(=O)=O [4(12), N-(5-tert-butyl-3-methanesulphonylamino-2-methoxy-phenyl)-3-[6-((R)-3-dimethylamino-pyrrolidin-1-yl)-pyrimidin-4-yloxy]-4-methyl-benzamide]
96.3	COc1c(NC(=O)c2ccc(C)c(Oc3cc(N4CC[C@H](N(C)C)C4)ncn3)c2)cc(C(C)(C)C)cc1NS(C)(=O)=O [4(13), N-(5-tert-butyl-3-methanesulphonylamino-2-methoxy-phenyl)-3-[6-((S)-3-dimethylamino-pyrrolidin-1-yl)-pyrimidin-4-yloxy]-4-methyl-benzamide]
99.4	COc1c(NC(=O)c2ccc(Cl)c(Oc3cc(NC4CCN(C)CC4)ncn3)c2)cc(C(C)(C)C)cc1NS(C)(=O)=O [4(14), N-(5-tert-butyl-3-methanesulphonylamino-2-methoxy-phenyl)-4-chloro-3-[6-(1-methyl-piperidin-4-ylamino)-pyrimidin-4-yloxy]-benzamide]
99.6	COc1c(NC(=O)c2ccc(Cl)c(Oc3ccnc(NC4CCN(C)CC4)n3)c2)cc(C(C)(C)C)cc1NS(C)(=O)=O [4(15), N-(5-tert-butyl-3-methanesulphonylamino-2-methoxy-phenyl)-4-chloro-3-[2-(1-methyl-piperidin-4-ylamino)-pyrimidin-4-yloxy]-benzamide]
99.4	COc1c(NC(=O)c2ccc(C)c(Oc3ccnc(N(C)C4CCN(C)CC4)n3)c2)cc(C(C)(C)C)cc1NS(C)(=O)=O [4(16), N-(5-tert-butyl-3-methanesulphonylamino-2-methoxy-phenyl)-4-methyl-3-{2-[methyl-(1-methyl-piperidin-4-yl)-amino]-pyrimidin-4-yloxy}-benzamide]
98.7	COc1c(NC(=O)c2ccc(C)c(Oc3cc(N(C)C4CCN(C)CC4)ncn3)c2)cc(C(C)(C)C)cc1NS(C)(=O)=O [4(17), N-(5-tert-butyl-3-methanesulphonylamino-2-methoxy-phenyl)-4-methyl-3-{6-[methyl-(1-methyl-piperidin-4-yl)-amino]-pyrimidin-4-yloxy}-benzamide]
99	COc1c(NC(=O)c2ccc(C)c(Oc3ccnc(N[C@H]4CC[C@H](N(C)C)CC4)n3)c2)cc(C(C)(C)C)cc1NS(C)(=O)=O [4(18), N-(5-tert-butyl-3-methanesulphonylamino-2-methoxy-phenyl)-3-[2-(trans-4-dimethylamino-cyclohexylamino)-pyrimidin-4-yloxy]-4-methyl-benzamide]
98.6	COc1c(NC(=O)c2ccc(C)c(Oc3ccnc(N(C)C4CCN(C)C4)n3)c2)cc(C(C)(C)C)cc1NS(C)(=O)=O (centres unmarked) [4(19), N-(5-tert-butyl-3-methanesulphonylamino-2-methoxy-phenyl)-4-methyl-3-{2-[methyl-(1-methyl-pyrrolidin-3-yl)-amino]-pyrimidin-4-yloxy}-benzamide]
